Results on 8 compounds are retold here after PubChem BioAssay (NCI).

Molecules are shown by their SMILES.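 Briefly, cells in 96-well plates were exposed to five compound concentrations for 48 h, and endpoints were estimated by linear interpolation. The concentration for full growth arrest is given as TGI.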

Test systems include SF-268 CNS; OVCAR-5 ovarian; ACHN renal; KM12 colon; HOP-62 NSCLC; EKVX NSCLC; T-47D breast; OVCAR-4 ovarian; NCI-H226 lung; NCI-H460 lung; BT-549 breast; SK-MEL-28 melanoma; COLO 205 colon; NCI/ADR-RES ovarian; HS 578T breast; SR leukemia; HL-60(TB) leukemia; PC-3 prostate; MDA-N.
Holding throughout (experiment): inhibition of tumour cell growth, NCI panel, 48 h

For `CC(=O)[C@@H]1C/C(=C\OCc2ccccc2)O[C@H]1C`, the TGI with SF-268 CNS, in the assay with OVCAR-5 ovarian, with ACHN renal, in the assay on KM12 colon, in the assay on HOP-62 NSCLC and with EKVX NSCLC was greater than 100 µM each time. In addition, the TGI in the assay on T-47D breast, in the assay with OVCAR-4 ovarian, in the assay on NCI-H226 lung, in the assay on NCI-H460 lung, with BT-549 breast and with SK-MEL-28 melanoma was greater than 100 µM throughout. Besides, the TGI in the assay on COLO 205 colon and in the assay on NCI/ADR-RES ovarian was greater than 100 µM in each case.
Turning to `CCC(C(=O)C(=O)C(CC)P1(=O)OC(C)(C)CN1C(C)(C)C)P1(=O)OC(C)(C)CN1C(C)(C)C` (stereo unspecified), the TGI in the assay on SF-268 CNS, in the assay with HS 578T breast, with ACHN renal, with KM12 colon, in the assay with HOP-62 NSCLC and in the assay on EKVX NSCLC was greater than 100 µM throughout. Further, the TGI in the assay on SR leukemia, in the assay with T-47D breast, with HL-60(TB) leukemia, with NCI-H226 lung, in the assay with PC-3 prostate and in the assay with NCI-H460 lung was greater than 100 µM throughout. Further, the TGI in the assay on BT-549 breast, in the assay with SK-MEL-28 melanoma, with COLO 205 colon and in the assay on NCI/ADR-RES ovarian was greater than 100 µM throughout.
Turning to `O=S(CC1(O)CCCCC1)c1ccccc1` (stereo unspecified), the TGI in the assay on SF-268 CNS, with HS 578T breast, in the assay on OVCAR-5 ovarian, in the assay with ACHN renal, in the assay with KM12 colon and with HOP-62 NSCLC was greater than 100 µM throughout. For the same compound, the TGI with EKVX NSCLC, with SR leukemia, in the assay with T-47D breast, in the assay on OVCAR-4 ovarian, with HL-60(TB) leukemia and in the assay on NCI-H226 lung was greater than 100 µM throughout. The TGI in the assay on PC-3 prostate, with NCI-H460 lung, with BT-549 breast, in the assay with SK-MEL-28 melanoma, in the assay on COLO 205 colon and with NCI/ADR-RES ovarian was greater than 100 µM in each case.
Regarding `COc1cccc(/C=C2\CCCc3ccccc3C2=O)c1`, the TGI was 23 µM with SF-268 CNS; 41.4 µM in the assay on HS 578T breast; 38 µM with OVCAR-5 ovarian; greater than 100 µM with ACHN renal; 38.8 µM in the assay with KM12 colon; 31 µM in the assay with HOP-62 NSCLC. The TGI in the assay with EKVX NSCLC was 50.2 µM; with SR leukemia, 31.3 µM; in the assay with OVCAR-4 ovarian it was 28.5 µM; in the assay with HL-60(TB) leukemia it was 35 µM; in the assay on NCI-H226 lung, 49.3 µM; with PC-3 prostate it was 38.6 µM. Also, the TGI in the assay with NCI-H460 lung was 34.2 µM; in the assay on BT-549 breast it was 39.3 µM; with SK-MEL-28 melanoma, 41.1 µM; in the assay on COLO 205 colon, 35.6 µM; with NCI/ADR-RES ovarian, 53.3 µM.
`N#Cc1c(=O)c2ccccc2n2c1[nH]c1ccccc12`: the TGI in the assay with SF-268 CNS, in the assay on HS 578T breast, in the assay with OVCAR-5 ovarian, in the assay on ACHN renal, in the assay on KM12 colon and in the assay on HOP-62 NSCLC was greater than 100 µM throughout. Moreover, the TGI was greater than 100 µM in the assay on EKVX NSCLC; 43.8 µM with SR leukemia; 79.7 µM in the assay on T-47D breast; greater than 100 µM in the assay with OVCAR-4 ovarian; greater than 100 µM in the assay with HL-60(TB) leukemia; greater than 100 µM in the assay on NCI-H226 lung. Also, the TGI is greater than 100 µM with PC-3 prostate; greater than 100 µM with NCI-H460 lung; greater than 100 µM with BT-549 breast; greater than 100 µM in the assay on SK-MEL-28 melanoma; greater than 100 µM in the assay with COLO 205 colon; 70.4 µM in the assay on NCI/ADR-RES ovarian.
Regarding `COc1c(OC(C)C)c(OC(C)C)c2oc(=O)n3c2c1C(c1ccccc1-n1c(C)ccc1C)C=C3` (stereo unspecified), the TGI in the assay on SF-268 CNS, with HS 578T breast, in the assay with OVCAR-5 ovarian, with ACHN renal, in the assay with KM12 colon and in the assay on HOP-62 NSCLC was greater than 100 µM in each case. Moreover, the TGI in the assay on EKVX NSCLC is 95.4 µM; in the assay with OVCAR-4 ovarian, greater than 100 µM; with HL-60(TB) leukemia, greater than 100 µM; with NCI-H226 lung, 38.3 µM; in the assay on PC-3 prostate, greater than 100 µM; with NCI-H460 lung, greater than 100 µM. The TGI with BT-549 breast, with MDA-N, in the assay with SK-MEL-28 melanoma, with COLO 205 colon and with NCI/ADR-RES ovarian was greater than 100 µM each time.
`CC(=O)O/C=C1/C[C@H]2[C@@H]3CCC4CC(C(C)=O)CC[C@]4(C)[C@H]3CC[C@]2(C)C1=O` (stereo partly specified): the TGI with SF-268 CNS was greater than 100 µM; in the assay with OVCAR-5 ovarian it was greater than 100 µM; with ACHN renal, greater than 100 µM; in the assay with KM12 colon, 93.3 µM; in the assay with HOP-62 NSCLC, greater than 100 µM; in the assay on EKVX NSCLC, greater than 100 µM. For the same compound, the TGI with SR leukemia was greater than 100 µM; with OVCAR-4 ovarian it was greater than 100 µM; in the assay with HL-60(TB) leukemia, 37.2 µM; in the assay with NCI-H226 lung, greater than 100 µM; in the assay on PC-3 prostate, greater than 100 µM; in the assay on NCI-H460 lung it was greater than 100 µM. Moreover, the TGI with BT-549 breast, in the assay with MDA-N and with SK-MEL-28 melanoma was greater than 100 µM each time.
With `Clc1nssc1=Nc1nonc1-c1ccccc1`, the TGI was 49.3 µM with OVCAR-5 ovarian; 36.1 µM with ACHN renal; 96 µM in the assay with KM12 colon; greater than 100 µM in the assay with HOP-62 NSCLC; greater than 100 µM with EKVX NSCLC; 68.6 µM with SR leukemia. Moreover, the TGI in the assay with OVCAR-4 ovarian is greater than 100 µM; in the assay with HL-60(TB) leukemia, 34.9 µM; in the assay with NCI-H226 lung, greater than 100 µM; in the assay with PC-3 prostate it was greater than 100 µM; in the assay on NCI-H460 lung it was greater than 100 µM; with BT-549 breast it was 89.8 µM. The TGI in the assay with MDA-N is 41.2 µM; in the assay with SK-MEL-28 melanoma it was greater than 100 µM; in the assay on COLO 205 colon, 36.7 µM; in the assay with NCI/ADR-RES ovarian, 98.3 µM.
